Source: PMC5517562, “Design and discovery of novel monastrol-1,3,5-triazines as potent anti-breast cancer agent via attenuating Epidermal Growth Factor Receptor tyrosine kinase” (Scientific Reports, 2017)
Where two headings read alike, the source gives them in different places.

Legend:
HeLa (cervical cancer) = test: MTT in vitro cytotoxicity assay, HeLa; assay type: cell-based, human
Protocol: (§1) The synthesized compounds were evaluated for in-vitro cytotoxic activity against various cell lines such as HeLa (cervical cancer), MCF-7 (breast cancer), HL-60 (Human promyelocytic leukemia), HepG2 (Hepatocellular carcinoma) and MCF 12A (normal epithelial cell) by the MTT assay method. […] The relationship between surviving fraction and drug concentration was plotted to obtain the survival curve of all the cancer cell lines HeLa, MCF-7, HL-60 and HepG2. The response parameter calculated was the IC50 values, which responds to the concentration required for 50% inhibition of cell viability. The in-vitro cytotoxic activity of the synthesized compounds is summarized Table 3.
(§2) The target compounds were subjected to in vitro cytotoxicity bioassay. In vitro cytotoxicity was determined using a standard MTT assay with protocol appropriate for the individual test system[29]–[31]. The four human cancer cell lines HeLa, MCF-7, HL-60, HepG2 and MCF-12A were cultured in the MEM medium supplemented with 10% FBS, 1% glutamine and […] gentamicin sulfate in a CO2 incubator in a humidified atmosphere of 5% CO2 and 95% air. The test compounds were prepared prior to the experiment by dissolving in 0.1% DMSO and diluted with medium. The cells were then exposed to different concentrations of drugs ([…]) in the volume of […]. Cells in the control wells received the same volume of medium containing 0.1% DMSO. After 24 h, the medium was removed and cell cultures were incubated with […] MTT reagent (1 mg/ml) for 5 h at 37 °C. The known number of cells ([…]) was incubated in a 5% CO2 incubator at 37 °C in the presence of different concentrations of test compounds. After 48 h of drug incubation, the MTT solution was added in each well and absorbance was recorded at 540 nm by an ELISA reader. The experiment was performed in triplicate. Cell survival was calculated as the percentage of MTT inhibition as % growth inhibition = 100 − (mean OD of individual test Group/Mean OD of each Control Group) × 100.

MCF-7 (breast cancer) = test: MTT in vitro cytotoxicity assay, MCF-7; assay type: cell-based, human
Protocol: as §1, §2

[1] = test system: HL-60 (Human promyelocytic leukemia); test: MTT in vitro cytotoxicity assay, HL-60; assay type: cell-based
Protocol: as §1, §2

[2] = test system: HepG2 (Hepatocellular carcinoma); test: MTT in vitro cytotoxicity assay, HepG2; assay type: cell-based, human; settings: NA: Not active
Protocol: as §1, §2

[3] = test system: MCF 12A (normal epithelial breast cell line); test: MTT assay on normal cells, MCF 12A; assay type: cell-based, human; settings: normal epithelial breast cell MCF 12A; for IC50: Homo sapiens
Protocol: as §1
The presence of non-halogen substituent along with electron donating substituent seriously jeopardise the anticancer potential. […] To determine the selectivity of these molecules between normal and cancerous cells, the designed compounds were also tested against MCF 12A, a normal epithelial breast cell.
as §2

EGFR-TK = biological target: T1, EGFR-TK (Homo sapiens, UniProt P00533); test: EGFR tyrosine kinase inhibitory activity (Kinase-Glo Plus luminescence); assay type: biochemical; settings: for inhibition at 10 µM: read-out: Percent of Inhibition, EGFR tyrosine kinase; for %i: EGFR-TK percent inhibition as repeated in docking Table 5; for inhibition at 10 µM / Percent of Inhibition, EGFR tyrosine kinase: at 10 µM
T1 construct: 0.2 mg/mL Poly (Glu, Tyr) substrate, 10 mM ATP and EGFR
Protocol: Kinase activity was determined using Kinase-Glo Plus luminescence kinase assay kit, by quantitating the amount of ATP remaining in the solution of kinase reaction. The luminescent signal is correlated with the residual amount present and it was inversely related with kinase activity. The tested compounds were diluted to 100 mM in 10% DMSO, then […] of the dilution was added to a 50 mL reaction. All of the enzymatic reactions were performed at 30 °C for 40 min, 50 mL of reaction mixture contains 10 mM MgCl2, 40 mM Tris, pH 7.4, 0.1 mg/mL BSA, 0.2 mg/mL Poly (Glu, Tyr) substrate, 10 mM ATP and EGFR. Incubate the plate for 5 min at r.t. then add 50 mL of Kinase-GloPlus Luminescence kinase assay to each reaction. ADP-Glo assay kit is the protein kinase assays used to determine IC50 values in which ADP generation was measured as it leads to an increase in luminescence signal. The reaction mixture was incubated in a 96-well plate at 30 °C for 30 min, after the incubation period add 25 mL of ADP-Glo reagent to terminate the assay. Shake the 96-well plate for 30 min at ambient temperature then incubate it, then add 50 mL of kinase detection reagent. Read the 96-well plate using the ADP-Glo Luminescence reader. All the assay components were added to the blank control except the substrate. By removing the blank control value you can obtain the corrected activity for each protein kinase target.

T1 sequence (P00533 25-1210): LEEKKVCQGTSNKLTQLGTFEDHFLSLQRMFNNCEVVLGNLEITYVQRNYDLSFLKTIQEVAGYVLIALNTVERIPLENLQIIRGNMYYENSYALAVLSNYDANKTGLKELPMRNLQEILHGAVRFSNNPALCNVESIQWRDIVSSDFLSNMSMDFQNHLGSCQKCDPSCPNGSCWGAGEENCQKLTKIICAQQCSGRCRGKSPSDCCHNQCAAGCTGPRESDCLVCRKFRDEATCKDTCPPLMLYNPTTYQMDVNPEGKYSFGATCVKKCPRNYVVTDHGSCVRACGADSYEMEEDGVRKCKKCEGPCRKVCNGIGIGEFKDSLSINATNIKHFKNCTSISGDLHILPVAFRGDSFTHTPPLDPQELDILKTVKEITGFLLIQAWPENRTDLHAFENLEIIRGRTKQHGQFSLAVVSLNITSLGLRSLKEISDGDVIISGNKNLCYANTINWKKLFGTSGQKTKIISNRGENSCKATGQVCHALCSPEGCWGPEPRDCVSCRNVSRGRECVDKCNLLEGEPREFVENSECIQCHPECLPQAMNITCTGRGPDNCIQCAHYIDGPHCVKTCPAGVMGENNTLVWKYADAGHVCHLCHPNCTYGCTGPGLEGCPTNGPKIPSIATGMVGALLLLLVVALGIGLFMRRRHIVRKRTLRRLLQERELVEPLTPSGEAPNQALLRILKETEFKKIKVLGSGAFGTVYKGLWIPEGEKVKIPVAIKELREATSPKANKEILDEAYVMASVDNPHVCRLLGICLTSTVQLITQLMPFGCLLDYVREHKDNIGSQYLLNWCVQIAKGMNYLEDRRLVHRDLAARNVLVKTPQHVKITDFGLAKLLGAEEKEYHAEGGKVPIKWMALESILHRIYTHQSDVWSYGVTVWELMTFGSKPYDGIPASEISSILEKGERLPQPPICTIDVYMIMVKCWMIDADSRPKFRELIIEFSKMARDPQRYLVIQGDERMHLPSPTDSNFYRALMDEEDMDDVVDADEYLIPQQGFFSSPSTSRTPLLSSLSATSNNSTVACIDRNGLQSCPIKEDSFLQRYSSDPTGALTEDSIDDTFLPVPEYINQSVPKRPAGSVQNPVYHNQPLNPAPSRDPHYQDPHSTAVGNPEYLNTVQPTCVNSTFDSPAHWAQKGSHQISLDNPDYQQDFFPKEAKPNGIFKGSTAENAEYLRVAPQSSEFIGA

| SMILES | IC50 (HeLa (cervical cancer); Homo sapiens) [µM] | IC50 (MCF-7 (breast cancer); Homo sapiens, MCF7) [µM] | IC50 ([1]; Homo sapiens) [µM] | IC50 HepG2 [2] | IC50 MCF 12A [3] | inhibition at 10 µM (EGFR-TK) [%] | melting point [°C] | IC50 ([2]; Homo sapiens) [µM] | IC50 [3] [µM] | %i (EGFR-TK) [%] | Percent of Inhibition, EGFR tyrosine kinase (EGFR-TK) [%] | IC50 (HeLa (cervical cancer)) [µM] | IC50 (MCF-7 (breast cancer)) [µM] | IC50 [1] [µM] | IC50 [2] [µM] |
| --- | --- | --- | --- | --- | --- | --- | --- | --- | --- | --- | --- | --- | --- | --- | --- |
| CCOC(=O)C1=C(C)N(c2nc(Nc3ccccc3)nc(Nc3ccccc3)n2)C(=S)NC1c1ccccc1 (centres unmarked) [7a, Ethyl 1-(4,6-bis(phenylamino)-1,3,5-triazin-2-yl)-6-methyl-4-phenyl-2-thioxo-1,2,3,4-tetrahydropyrimidine-5-carboxylate] | 96.6 ± 0.45 | 87.4 ± 0.76 | 83.7 ± 0.27 | inactive | non-toxic | 52.4 | 225 to 227 |  |  |  |  |  |  |  |  |
| CCOC(=O)C1=C(C)N(c2nc(Nc3ccc([N+](=O)[O-])cc3)nc(Nc3ccc([N+](=O)[O-])cc3)n2)C(=S)NC1c1ccc(C)cc1 (centres unmarked) [7b, Ethyl 1-(4,6-bis((4-nitrophenyl)amino)-1,3,5-triazin-2-yl)-6-methyl-2-thioxo-4-(p-tolyl)-1,2,3,4-tetrahydropyrimidine-5-carboxylate] | 81.8 ± 0.34 | 76.5 ± 0.54 | 77.3 ± 0.41 |  | non-toxic | 56.7 | 183 to 185 | 79.3 ± 0.75 |  |  |  |  |  |  |  |
| CCOC(=O)C1=C(C)N(c2nc(Nc3ccccc3[N+](=O)[O-])nc(Nc3ccccc3[N+](=O)[O-])n2)C(=S)NC1c1ccc(C)cc1 (centres unmarked) [7c, Ethyl 1-(4,6-bis((2-nitrophenyl)amino)-1,3,5-triazin-2-yl)-6-methyl-2-thioxo-4-(p-tolyl)-1,2,3,4-tetrahydropyrimidine-5-carboxylate] | 83.5 ± 0.22 | 72.2 ± 0.61 | 70.5 ± 0.49 |  | non-toxic | 53.6 | 232 to 234 | 86.4 ± 0.67 |  |  |  |  |  |  |  |
| CCOC(=O)C1=C(C)N(c2nc(Nc3cccc(Cl)c3)nc(Nc3cccc(Cl)c3)n2)C(=S)NC1c1ccc(O)cc1 (centres unmarked) [7d, Ethyl 1-(4,6-bis((3-chlorophenyl)amino)-1,3,5-triazin-2-yl)-4-(4-hydroxyphenyl)-6-methyl-2-thioxo-1,2,3,4-tetrahydropyrimidine-5-carboxylate] | 51.3 ± 0.32 | 61.3 ± 0.78 | 43.2 ± 0.38 |  | non-toxic | 74.8 | 161 to 163 | 41.4 ± 0.38 |  |  |  |  |  |  |  |
| CCOC(=O)C1=C(C)N(c2nc(Nc3cccc(Br)c3)nc(Nc3cccc(Br)c3)n2)C(=S)NC1c1ccccc1O (centres unmarked) [7e, Ethyl 1-(4,6-bis((3-bromophenyl)amino)-1,3,5-triazin-2-yl)-4-(2-hydroxyphenyl)-6-methyl-2-thioxo-1,2,3,4-tetrahydropyrimidine-5-carboxylate] | 63.9 ± 0.25 | 67.8 ± 0.61 | 57.4 ± 0.52 |  |  | 78.5 | 245 to 247 | 65.6 ± 0.45 | 89.45 ± 0.45 |  |  |  |  |  |  |
| CCOC(=O)C1=C(C)N(c2nc(Nc3ccccc3Cl)nc(Nc3ccccc3Cl)n2)C(=S)NC1c1ccc(OC)cc1 (centres unmarked) [7f, Ethyl 1-(4,6-bis((2-chlorophenyl)amino)-1,3,5-triazin-2-yl)-4-(4-methoxyphenyl)-6-methyl-2-thioxo-1,2,3,4-tetrahydropyrimidine-5-carboxylate] | 55.4 ± 0.12 | 64 ± 0.38 | 47 ± 0.54 |  |  | 81.4 | 91 to 93 | 46.5 ± 0.36 | 82.14 ± 0.21 |  |  |  |  |  |  |
| CCOC(=O)C1=C(C)N(c2nc(Nc3cccc(F)c3)nc(Nc3cccc(F)c3)n2)C(=S)NC1c1ccccc1OC (centres unmarked) [7g, Ethyl 1-(4,6-bis((3-fluorophenyl)amino)-1,3,5-triazin-2-yl)-4-(2-methoxyphenyl)-6-methyl-2-thioxo-1,2,3,4-tetrahydropyrimidine-5-carboxylate] | 42.1 ± 0.12 | 47.4 ± 0.27 | 31.5 ± 0.21 |  |  | 94.3 | 132 to 135 | 36.3 ± 0.47 | 77.22 ± 0.34 |  |  |  |  |  |  |
| CCOC(=O)C1=C(C)N(c2nc(Nc3ccc([N+](=O)[O-])cc3)nc(Nc3ccc([N+](=O)[O-])cc3)n2)C(=S)NC1c1ccc(Cl)cc1 (centres unmarked) [7h, Ethyl 1-(4,6-bis((4-nitrophenyl)amino)-1,3,5-triazin-2-yl)-4-(4-chlorophenyl)-6-methyl-2-thioxo-1,2,3,4-tetrahydropyrimidine-5-carboxylate] | 73.4 ± 0.65 | 71.5 ± 0.46 | 61.4 ± 0.36 |  | non-toxic | ~69 | 146 to 147 | 69.6 ± 0.38 |  | 69.1 | 69.1 |  |  |  |  |
| CCOC(=O)C1=C(C)N(c2nc(Nc3ccccc3[N+](=O)[O-])nc(Nc3ccccc3[N+](=O)[O-])n2)C(=S)NC1c1cccc(Br)c1 (centres unmarked) [7i, Ethyl 1-(4,6-bis((2-nitrophenyl)amino)-1,3,5-triazin-2-yl)-4-(3-bromophenyl)-6-methyl-2-thioxo-1,2,3,4-tetrahydropyrimidine-5-carboxylate] | 76 ± 0.54 | 76.4 ± 0.33 | 66.7 ± 0.67 |  | non-toxic | ~69 | 185 to 186 | 71.6 ± 0.29 |  | 69.3 | 69.3 |  |  |  |  |
| CCOC(=O)C1=C(C)N(c2nc(Nc3cccc(Br)c3)nc(Nc3cccc(Br)c3)n2)C(=S)NC1c1ccc([N+](=O)[O-])cc1 (centres unmarked) [7k, Ethyl 1-(4,6-bis((3-bromophenyl)amino)-1,3,5-triazin-2-yl)-6-methyl-4-(4-nitrophenyl)-2-thioxo-1,2,3,4-tetrahydropyrimidine-5-carboxylate] | 66.4 ± 0.67 | 65.6 ± 0.43 | 51.3 ± 0.82 |  | non-toxic | ~69 |  | 59.7 ± 0.69 |  | 70.1 | 70.1 |  |  |  |  |
| CCOC(=O)C1=C(C)N(c2nc(Nc3ccc(C)cc3)nc(Nc3ccc(C)cc3)n2)C(=S)NC1c1ccccc1C (centres unmarked) [7n, Ethyl 1-(4,6-bis(p-tolylamino)-1,3,5-triazin-2-yl)-6-methyl-2-thioxo-4-(o-tolyl)-1,2,3,4-tetrahydropyrimidine-5-carboxylate] | 92.6 ± 0.23 | 93.2 ± 0.58 | 104.5 ± 0.39 |  | non-toxic | 54.2 | 205 to 207 |  |  |  |  |  |  |  |  |
| CCOC(=O)C1=C(C)N(c2nc(Nc3ccc(C)cc3)nc(Nc3ccc(C)cc3)n2)C(=S)NC1c1ccc(O)cc1 (centres unmarked) [7o, Ethyl 1-(4,6-bis(p-tolylamino)-1,3,5-triazin-2-yl)-4-(4-hydroxyphenyl)-6-methyl-2-thioxo-1,2,3,4-tetrahydropyrimidine-5-carboxylate] | 94.3 ± 0.78 | 89.4 ± 0.49 | 98.3 ± 0.27 |  | non-toxic | 45.6 | 131 to 133 |  |  |  |  |  |  |  |  |
| N.N.[Cl][Pt][Cl] [Cisplatin, reference compound] |  |  |  |  | non-toxic |  |  |  |  |  |  | 32.5 ± 0.62 | 24.4 ± 0.92 | 12.3 ± 0.76 | 25.9 ± 0.82 |
